Earlier results on three compounds are cited in patent US20130109728A1, “BIOCIDE COMPOSITION” (TITAN CHEMICALS LIMITED, priority 2011, published 2013).

Experiment in series [1]: not given
This is another data set of the same source.

For the compound `O=c1[nH]sc2ccccc12` [BIT, 1,2-benzisothiazolin-3-one], the water solubility entry is “not very water soluble”.

`Cn1sccc1=O` [MIT, 2-methylisothiazolin-3-one]: the “freezing point of solutions in water” value in series [1] (solutions of MIT in water) is “about 0 °C”.

On to `C[N+](C)(C)C.O=c1[nH]sc2ccccc12` [tetramethylammonium BIT, tetramethylammonium 1,2-benzisothiazolin-3-one], for which, in series [1] (59 wt % tetramethylammonium BIT (40 wt % calculated as BIT), after storage for 24 hours and seeding with solid tetramethylammonium BIT, reported in WO 02 14 293), the “minimum freezing point of water solution” value was 3 °C.
